According to ChEMBL document CHEMBL1158071, “Pterulamides I-VI, linear peptides from a Malaysian Pterula sp” (J Nat Prod, 2006):
pIC50: −log10 of the molar value. Non-standard residues stand in square brackets, D forms with d. Residues, ends and D or L forms follow the SMILES beside them. *: point of attachment. NMeI = CC[C@H](C)[C@H](NC)C(=O)O; NMeV = CN[C@H](C(=O)O)C(C)C; X2 = C[S+]([O-])/C=C/C(=O)*; NMeA = CN[C@@H](C)C(=O)O; X1 = O=C(/C=C/c1ccccc1)*

Test system: P388
Assay: Cytotoxicity against mouse P388 cells
Assay type: functional, cell-based

| Compound | pIC50 |
| --- | --- |
| CC[C@H](C)[C@@H](C(=O)NC)N(C)C(=O)[C@@H](NC(=O)[C@H](C(C)C)N(C)C(=O)[C@H]([C@@H](C)CC)N(C)C(=O)[C@H](C)N(C)C(=O)/C=C/c1ccccc1)C(C)C [PTERULAMIDE IV] (X1-[NMeA][NMeI][NMeV]V[NMeI]-NHMe) | 5.88 |
| CC[C@H](C)[C@@H](C(=O)NC)N(C)C(=O)[C@@H](NC(=O)[C@H](C(C)C)N(C)C(=O)[C@H]([C@@H](C)CC)N(C)C(=O)[C@H](C)N(C)C(=O)/C=C/[S+](C)[O-])C(C)C (some centres not stated) [PTERULAMIDE I] (X2-[NMeA][NMeI][NMeV]V[NMeI]-NHMe) | 6.10 |
